Assay results as given in patent publication US11957665B1, “Pharmaceutical composition for preventing or treating alopecia areata acting as a functional antagonist for S1PR1 and S1PR4” (NEXTGEN BIOSCIENCE CO., LTD., priority 2022, dated 2024).

Tests used:
[1] = tested on: beagle dogs; assay: Effect on the cardiovascular system (heart rate, general symptoms) in beagle dogs; format: in vivo
Description: NXC736 was orally administered to four unanesthetized and unrestrained male beagle dogs (ORIENTBIO Inc., Republic of Korea) implanted with remote transmitters. Afterwards, the heart rate of four beagle dogs was measured to evaluate the effect of NXC736 on the cardiovascular system, and the occurrence of abnormal symptoms was visually checked.
In this experiment, 4 beagle dogs were administered with 0.5% MC aqueous solution, which is an excipient, as a control substance, and the heart rate was measured, and after 1 week, NXC736 was administered at 12.5 mg/kg and the heart rate was measured, after 1 week, NXC736 was administered at 25 mg/kg and the heart rate was measured, and after 1 week, NXC736 was administered at 50 mg/kg and the heart rate was measured.
The heart rate of beagle dogs was specifically measured at 0 hours before administration of the test substance, and 0.5 hours, 1 hour, 2 hours, 3 hours, 4 hours, 6 hours, 8 hours, 12 hours, and 24 hours after administration of the test substance.

[2] = tested on: T cells, CD4 T cells, CD8 T cells; assay: Inhibitory effect of NXC736 on mouse immune cells (flow cytometry of lymphocytes in peripheral blood and bone marrow); format: in vivo, C57BL/6 mice; details: 3 mg/kg oral once
Description: To determine whether NXC736, which acts on the S1P receptor, also has an effect on lymphocyte reduction, the effect of NXC736 on immune cells was evaluated. After oral administration of NXC736 once at 3 mg/kg/day to C57BL/6 mice (Daehan BioLink (DBL), 4 mice in the control group and 18 mice in the test group), the change in lymphocytes in peripheral blood (PB), bone marrow (BM) was measured by classifying into T cells (using anti-mouse CD3ε-PE/cyanine7 antibody), CD4 T cells (using anti-mouse CD4-FITC antibody), and CD8 T cells (using anti-mouse CD8a-PerCP antibody). Specifically, measurements were made using a flow cytometer (FC500, Beckman coulter) at 0, 4, 8, 12, 24, and 36 hours after administration of the test substance, the analysis was performed using FlowJo™ V10 (Flowjo, LLC), and the numbers of T cells, CD4 T cells, and CD8 T cells were expressed as % of control based on time 0.

[3] = target: T1, hERG potassium ion channel (Homo sapiens, UniProt Q12809); assay: cell-based
[4] = target: T1, hERG potassium ion channel; assay: Effect on hERG channel currents in HEK-293 cells overexpressing the hERG gene
[5] = tested on: alopecia areata mouse model C3H/HeJ; assay: Efficacy in suppressing alopecia areata in C3H/HeJ alopecia areata mouse model; format: in vivo, C3H/HeJ mice
Description: The effectiveness of NXC736 for alopecia areata was evaluated using the alopecia areata mouse model C3H/HeJ (Jackson Lab, Saeron Bio). […] Conditions for the animal breeding room include a temperature of 23±3° C., relative humidity of 50±10%, and day and night maintained at 12-hour intervals, and experimental animals were raised in isolation breeding boxes (ThreeShine), and fed with food and drinking water for experimental animals ad libitum.
Mice were divided into two groups: the control group (sterilized distilled water administration group) and the NXC736 administration experimental group, five C3H/HeJ mice were randomly assigned per group, and from the time point lymph node cells were proliferated and injected into C3H/HeJ mice aged 10 to 16 weeks where no alopecia was induced, NXC736 was orally administered at 30 mg/kg for the NXC736 administration group and the same volume of sterilized distilled water was orally administered for the control group for 12 weeks once a day at the same time, respectively, and then the area of alopecia areata (AA) lesion area and disease free ratio were measured at intervals of 2 weeks.
The alopecia areata lesion area was measured using the Image J program (Version 1.44p) after taking a photograph.
The disease free ratio was defined as the proportion of mice administered the drug and not showing alopecia symptoms at a specified time point.

[6] = tested on: T cells, CD4 T cells, CD8 T cells; assay: Inhibitory effect of NXC736 on rat immune cells (flow cytometry of lymphocytes in peripheral blood and bone marrow); format: in vivo, SD rats; details: 10 mg/kg oral once, PB
Description: To evaluate the effect of NXC736 on rat immune cells, NXC736 was administered orally once at 10 mg/kg/day to SD rats (Daehan BioLink (DBL), 3 control groups, and 15 test groups), and then measurements were performed by classifying into T cells, CD4 T cells, and CD8 T cells in peripheral bloodstream (PB) and bone marrow (BM) using the same antibodies as in Experimental Example 1. Specifically, measurements were made using a flow cytometer (FC500, Beckman coulter) at 0, 4, 8, 12, 24, 36, and 48 hours after administration of the test substance, the analysis was performed using FlowJo™ V10 (Flowjo, LLC), and the numbers of T cells, CD4 T cells, and CD8 T cells were expressed as % of control based on time 0.

T1 sequence (Q12809 whole entry): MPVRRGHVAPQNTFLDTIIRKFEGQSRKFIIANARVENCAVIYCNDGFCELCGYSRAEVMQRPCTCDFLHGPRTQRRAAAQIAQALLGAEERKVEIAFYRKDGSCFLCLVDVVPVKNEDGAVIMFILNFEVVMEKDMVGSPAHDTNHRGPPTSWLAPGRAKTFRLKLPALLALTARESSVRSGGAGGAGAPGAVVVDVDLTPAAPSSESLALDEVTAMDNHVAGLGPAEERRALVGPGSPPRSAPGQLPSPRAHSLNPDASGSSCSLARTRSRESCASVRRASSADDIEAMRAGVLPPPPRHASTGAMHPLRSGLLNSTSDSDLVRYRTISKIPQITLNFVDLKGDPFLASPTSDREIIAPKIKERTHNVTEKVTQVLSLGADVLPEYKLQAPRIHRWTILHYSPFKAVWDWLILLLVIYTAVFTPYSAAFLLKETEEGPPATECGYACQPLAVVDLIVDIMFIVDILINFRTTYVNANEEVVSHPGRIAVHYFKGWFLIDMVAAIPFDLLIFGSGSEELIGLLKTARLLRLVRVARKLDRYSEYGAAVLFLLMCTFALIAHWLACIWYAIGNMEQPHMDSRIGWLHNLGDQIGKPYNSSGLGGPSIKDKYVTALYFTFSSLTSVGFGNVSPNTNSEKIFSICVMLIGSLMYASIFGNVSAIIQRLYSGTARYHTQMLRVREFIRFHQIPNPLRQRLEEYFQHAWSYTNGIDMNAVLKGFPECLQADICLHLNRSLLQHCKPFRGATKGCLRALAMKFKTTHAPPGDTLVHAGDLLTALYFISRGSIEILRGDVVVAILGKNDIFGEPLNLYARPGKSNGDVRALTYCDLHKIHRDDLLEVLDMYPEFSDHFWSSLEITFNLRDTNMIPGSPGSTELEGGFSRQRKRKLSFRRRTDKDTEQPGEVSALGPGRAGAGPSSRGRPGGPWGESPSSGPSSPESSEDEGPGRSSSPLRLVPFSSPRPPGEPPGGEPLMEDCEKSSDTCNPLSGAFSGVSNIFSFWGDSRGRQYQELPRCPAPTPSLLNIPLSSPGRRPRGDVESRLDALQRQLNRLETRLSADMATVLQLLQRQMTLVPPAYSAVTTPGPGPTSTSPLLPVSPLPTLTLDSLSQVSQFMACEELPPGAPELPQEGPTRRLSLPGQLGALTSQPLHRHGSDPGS

CCCCCCCCCCn1cc(CCC(N)(CO)CO)nn1 [NXC736, 2-amino-2-(2-(1-decyl-1H-1,2,3-triazol-4-yl)ethyl)propane-1,3-diol]
heart rate ([1]; oral doses of 12.5, 25 and 50 mg/kg, 0-24 hours): no change in heart rate | general symptoms, naked eye ([1]; oral doses of 12.5, 25 or 50 mg/kg): no abnormal symptoms were observed | time until which the decrease of T cells in PB was maintained [2]: ≤ 12 h | T cells in PB after recovery (% of control) ([2]; at 36 hours): 88.9% | IC50 [3]: 12.9 µM | hERG potassium channel activity, conclusion [4]: does not inhibit hERG potassium channel activity | time to observe 100% alopecia areata (disease free ratio) ([5]; 30 mg/kg oral once a day): up to 84 days | alopecia areata (AA) lesion area ([5]; 30 mg/kg oral once a day for 12 weeks): approximately 10% | time for which the immunosuppressive effect was maintained [6]: up to 24 hours
